Data as given in ChEMBL document CHEMBL4680201, “Design, synthesis, and pharmacological evaluation of 4- or 6-phenyl-pyrimidine derivatives as novel and selective Janus kinase 3 inhibitors” (Eur J Med Chem, 2020).
Calls of active or inactive are those of the source. No cut-off for these calls is given here.

How the values were obtained:
[1] = biological target: T1, Tyrosine-protein kinase JAK3 (Homo sapiens, UniProt P52333)
T1 sequence (P52333 whole entry): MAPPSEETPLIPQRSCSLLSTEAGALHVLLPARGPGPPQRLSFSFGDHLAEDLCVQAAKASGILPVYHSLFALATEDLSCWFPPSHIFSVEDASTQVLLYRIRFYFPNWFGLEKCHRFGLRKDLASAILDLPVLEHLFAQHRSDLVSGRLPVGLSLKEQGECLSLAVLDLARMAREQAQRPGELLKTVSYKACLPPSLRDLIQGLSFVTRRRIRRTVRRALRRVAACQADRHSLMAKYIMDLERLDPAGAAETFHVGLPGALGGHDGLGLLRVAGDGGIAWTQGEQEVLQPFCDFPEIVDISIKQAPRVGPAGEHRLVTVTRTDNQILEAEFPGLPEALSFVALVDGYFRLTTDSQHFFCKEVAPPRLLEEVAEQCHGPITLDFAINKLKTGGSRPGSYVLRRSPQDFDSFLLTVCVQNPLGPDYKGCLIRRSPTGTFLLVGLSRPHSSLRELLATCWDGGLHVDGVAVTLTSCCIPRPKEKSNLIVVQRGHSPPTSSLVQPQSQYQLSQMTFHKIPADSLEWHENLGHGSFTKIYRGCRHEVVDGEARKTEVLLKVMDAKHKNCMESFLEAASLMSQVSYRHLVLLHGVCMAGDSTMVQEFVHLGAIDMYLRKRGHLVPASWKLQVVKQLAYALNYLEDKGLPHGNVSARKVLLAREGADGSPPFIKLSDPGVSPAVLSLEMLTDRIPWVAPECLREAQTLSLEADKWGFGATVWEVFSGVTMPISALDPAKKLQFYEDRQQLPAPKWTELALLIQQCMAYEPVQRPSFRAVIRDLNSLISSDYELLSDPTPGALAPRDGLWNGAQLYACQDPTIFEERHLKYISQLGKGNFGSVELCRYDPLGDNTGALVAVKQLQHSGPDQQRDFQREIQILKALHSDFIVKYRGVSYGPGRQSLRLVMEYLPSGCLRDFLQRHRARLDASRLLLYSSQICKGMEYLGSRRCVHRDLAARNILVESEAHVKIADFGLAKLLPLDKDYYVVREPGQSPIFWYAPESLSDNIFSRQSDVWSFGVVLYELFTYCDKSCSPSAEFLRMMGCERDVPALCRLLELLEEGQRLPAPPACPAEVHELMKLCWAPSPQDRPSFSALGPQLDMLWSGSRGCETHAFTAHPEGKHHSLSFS

[2] = biological target: T2, Tyrosine-protein kinase JAK2 (Homo sapiens, UniProt O60674); type: ADME
T2 sequence (O60674 whole entry, the tested form may be a part): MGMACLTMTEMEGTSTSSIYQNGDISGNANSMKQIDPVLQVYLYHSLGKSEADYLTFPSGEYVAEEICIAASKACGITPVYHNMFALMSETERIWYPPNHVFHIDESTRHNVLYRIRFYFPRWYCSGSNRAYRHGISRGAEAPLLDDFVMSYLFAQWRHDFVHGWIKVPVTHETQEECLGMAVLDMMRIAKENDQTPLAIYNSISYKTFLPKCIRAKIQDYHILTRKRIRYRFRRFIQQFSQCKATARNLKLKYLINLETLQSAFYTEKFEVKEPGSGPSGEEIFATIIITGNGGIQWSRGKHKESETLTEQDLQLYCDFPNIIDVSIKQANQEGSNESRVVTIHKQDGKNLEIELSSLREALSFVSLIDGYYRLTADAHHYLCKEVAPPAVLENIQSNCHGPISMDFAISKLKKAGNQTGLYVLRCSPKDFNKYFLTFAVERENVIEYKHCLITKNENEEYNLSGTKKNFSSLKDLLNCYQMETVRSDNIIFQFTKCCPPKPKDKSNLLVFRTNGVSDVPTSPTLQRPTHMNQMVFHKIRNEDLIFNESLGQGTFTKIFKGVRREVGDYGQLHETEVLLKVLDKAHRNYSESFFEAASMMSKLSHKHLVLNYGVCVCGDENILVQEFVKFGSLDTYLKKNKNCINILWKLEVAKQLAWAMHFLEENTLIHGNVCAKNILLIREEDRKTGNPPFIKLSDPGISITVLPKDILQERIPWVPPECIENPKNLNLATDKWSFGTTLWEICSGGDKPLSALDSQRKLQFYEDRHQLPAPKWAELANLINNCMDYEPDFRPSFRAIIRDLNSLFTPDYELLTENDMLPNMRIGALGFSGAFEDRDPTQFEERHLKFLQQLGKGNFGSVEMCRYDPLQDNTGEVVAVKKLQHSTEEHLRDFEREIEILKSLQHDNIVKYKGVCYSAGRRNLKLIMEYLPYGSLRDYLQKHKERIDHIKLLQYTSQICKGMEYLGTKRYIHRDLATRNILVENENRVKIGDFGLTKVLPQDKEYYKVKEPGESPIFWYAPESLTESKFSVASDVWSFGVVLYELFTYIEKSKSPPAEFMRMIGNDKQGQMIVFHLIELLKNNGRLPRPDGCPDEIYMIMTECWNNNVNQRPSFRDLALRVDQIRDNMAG

[3] = biological target: Tyrosine-protein kinase JAK1 (Homo sapiens, UniProt P23458); assay: Inhibition of recombinant human GST-tagged JAK1 cytoplasmic domain (866 to 1154 residues) expressed in baculovirus expression system using TK-substrate-biotin preincubated for 5 mins followed by substrate addition and measured after 30 mins by HTRF assay
Sequence of Tyrosine-protein kinase JAK1 (P23458 whole entry, the tested form may be a part): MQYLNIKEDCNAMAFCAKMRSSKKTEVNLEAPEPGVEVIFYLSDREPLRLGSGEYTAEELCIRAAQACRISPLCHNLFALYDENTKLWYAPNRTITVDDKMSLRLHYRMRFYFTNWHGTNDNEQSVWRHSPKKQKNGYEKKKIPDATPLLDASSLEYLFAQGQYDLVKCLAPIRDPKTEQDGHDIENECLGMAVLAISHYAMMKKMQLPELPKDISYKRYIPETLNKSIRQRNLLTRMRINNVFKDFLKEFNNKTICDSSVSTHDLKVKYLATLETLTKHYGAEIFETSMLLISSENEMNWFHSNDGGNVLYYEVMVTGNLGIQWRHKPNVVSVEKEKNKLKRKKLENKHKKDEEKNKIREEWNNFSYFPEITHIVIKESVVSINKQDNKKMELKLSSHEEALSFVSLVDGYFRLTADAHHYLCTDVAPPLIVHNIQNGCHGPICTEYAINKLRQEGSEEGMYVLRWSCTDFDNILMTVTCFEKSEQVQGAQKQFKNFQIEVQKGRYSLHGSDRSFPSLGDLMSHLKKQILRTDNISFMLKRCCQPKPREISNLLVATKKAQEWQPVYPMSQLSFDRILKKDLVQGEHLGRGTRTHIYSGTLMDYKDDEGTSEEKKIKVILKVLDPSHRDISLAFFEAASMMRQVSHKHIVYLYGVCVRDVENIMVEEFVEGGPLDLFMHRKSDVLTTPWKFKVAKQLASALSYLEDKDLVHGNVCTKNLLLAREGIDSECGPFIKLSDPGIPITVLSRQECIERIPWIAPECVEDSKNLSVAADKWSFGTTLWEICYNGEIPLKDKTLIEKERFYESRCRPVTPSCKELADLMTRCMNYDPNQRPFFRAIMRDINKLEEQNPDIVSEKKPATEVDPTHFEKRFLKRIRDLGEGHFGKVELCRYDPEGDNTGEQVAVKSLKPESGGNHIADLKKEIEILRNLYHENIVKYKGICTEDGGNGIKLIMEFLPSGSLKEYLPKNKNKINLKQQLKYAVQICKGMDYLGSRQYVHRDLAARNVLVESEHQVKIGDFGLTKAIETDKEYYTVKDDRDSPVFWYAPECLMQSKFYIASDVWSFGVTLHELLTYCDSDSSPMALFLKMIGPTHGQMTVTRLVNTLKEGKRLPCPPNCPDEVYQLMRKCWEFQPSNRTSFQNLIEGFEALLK

[4] = biological target: Non-receptor tyrosine-protein kinase TYK2 (Homo sapiens, UniProt P29597); assay: Inhibition of recombinant human N-terminal GST-tagged TYK2 cytoplasmic domain (833 to 1187 residues) expressed in baculovirus expression system using TK-substrate-biotin preincubated for 5 mins followed by substrate addition and measured after 30 mins by HTRF assay
Sequence of Non-receptor tyrosine-protein kinase TYK2 (P29597 whole entry, the tested form may be a part): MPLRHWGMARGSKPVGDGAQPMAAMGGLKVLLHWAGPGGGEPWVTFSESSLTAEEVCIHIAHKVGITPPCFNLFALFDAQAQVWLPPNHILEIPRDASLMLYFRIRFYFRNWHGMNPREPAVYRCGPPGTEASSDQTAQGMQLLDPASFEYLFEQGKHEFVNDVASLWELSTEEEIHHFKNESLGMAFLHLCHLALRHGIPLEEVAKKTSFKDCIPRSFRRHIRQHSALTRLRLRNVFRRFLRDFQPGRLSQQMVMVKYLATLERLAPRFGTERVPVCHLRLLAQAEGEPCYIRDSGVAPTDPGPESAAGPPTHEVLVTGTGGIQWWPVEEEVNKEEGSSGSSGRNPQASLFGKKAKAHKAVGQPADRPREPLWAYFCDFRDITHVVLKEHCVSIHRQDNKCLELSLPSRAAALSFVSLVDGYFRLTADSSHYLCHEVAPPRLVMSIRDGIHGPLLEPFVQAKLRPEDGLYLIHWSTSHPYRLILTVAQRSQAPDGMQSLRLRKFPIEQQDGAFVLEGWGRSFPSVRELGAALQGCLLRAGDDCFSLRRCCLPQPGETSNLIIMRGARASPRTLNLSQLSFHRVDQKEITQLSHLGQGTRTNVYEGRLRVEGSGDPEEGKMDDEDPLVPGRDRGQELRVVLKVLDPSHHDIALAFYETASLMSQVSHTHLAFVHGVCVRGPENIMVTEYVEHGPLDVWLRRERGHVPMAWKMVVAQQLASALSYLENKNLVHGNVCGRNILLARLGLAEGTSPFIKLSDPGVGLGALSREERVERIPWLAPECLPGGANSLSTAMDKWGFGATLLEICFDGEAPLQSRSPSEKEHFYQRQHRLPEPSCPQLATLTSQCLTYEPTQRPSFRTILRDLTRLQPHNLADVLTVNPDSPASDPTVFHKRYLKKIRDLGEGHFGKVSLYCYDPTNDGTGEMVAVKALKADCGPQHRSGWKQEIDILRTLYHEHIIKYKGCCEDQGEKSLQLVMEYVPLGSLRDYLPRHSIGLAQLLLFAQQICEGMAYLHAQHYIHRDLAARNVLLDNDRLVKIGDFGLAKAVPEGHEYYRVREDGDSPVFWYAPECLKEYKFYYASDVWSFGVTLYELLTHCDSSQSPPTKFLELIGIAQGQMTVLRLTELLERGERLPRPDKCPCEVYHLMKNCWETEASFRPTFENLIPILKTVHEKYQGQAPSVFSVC

[5] = Cytotoxicity against resting mouse T cells assessed as reduction in cell viability at 10 uM measured after 72 hrs by MTS assay; type: cell-based
[6] = Cytotoxicity against IL-4-treated mouse T cells assessed as reduction in cell viability at 10 uM measured after 72 hrs by MTS assay; type: cell-based
[7] = tested on: RAW264.7; assay: Cytotoxicity against mouse RAW264.7 cells assessed as reduction in cell viability at 10 uM measured after 72 hrs by MTS assay; type: cell-based; settings: raw264.7, 72 h
[8] = biological target: T3, Tyrosine-protein kinase JAK3 (Mus musculus) (UniProt Q62137); assay: Inhibition of JAK3 in anti-CD3/-CD28 coated mouse T cells assessed as reduction in IL2-induced STAT5 phosphorylation at 10 uM preincubated for 1 hr followed by IL2 stimulation and measured after 30 mins by Western blot analysis; settings: T cell
T3 sequence (whole entry): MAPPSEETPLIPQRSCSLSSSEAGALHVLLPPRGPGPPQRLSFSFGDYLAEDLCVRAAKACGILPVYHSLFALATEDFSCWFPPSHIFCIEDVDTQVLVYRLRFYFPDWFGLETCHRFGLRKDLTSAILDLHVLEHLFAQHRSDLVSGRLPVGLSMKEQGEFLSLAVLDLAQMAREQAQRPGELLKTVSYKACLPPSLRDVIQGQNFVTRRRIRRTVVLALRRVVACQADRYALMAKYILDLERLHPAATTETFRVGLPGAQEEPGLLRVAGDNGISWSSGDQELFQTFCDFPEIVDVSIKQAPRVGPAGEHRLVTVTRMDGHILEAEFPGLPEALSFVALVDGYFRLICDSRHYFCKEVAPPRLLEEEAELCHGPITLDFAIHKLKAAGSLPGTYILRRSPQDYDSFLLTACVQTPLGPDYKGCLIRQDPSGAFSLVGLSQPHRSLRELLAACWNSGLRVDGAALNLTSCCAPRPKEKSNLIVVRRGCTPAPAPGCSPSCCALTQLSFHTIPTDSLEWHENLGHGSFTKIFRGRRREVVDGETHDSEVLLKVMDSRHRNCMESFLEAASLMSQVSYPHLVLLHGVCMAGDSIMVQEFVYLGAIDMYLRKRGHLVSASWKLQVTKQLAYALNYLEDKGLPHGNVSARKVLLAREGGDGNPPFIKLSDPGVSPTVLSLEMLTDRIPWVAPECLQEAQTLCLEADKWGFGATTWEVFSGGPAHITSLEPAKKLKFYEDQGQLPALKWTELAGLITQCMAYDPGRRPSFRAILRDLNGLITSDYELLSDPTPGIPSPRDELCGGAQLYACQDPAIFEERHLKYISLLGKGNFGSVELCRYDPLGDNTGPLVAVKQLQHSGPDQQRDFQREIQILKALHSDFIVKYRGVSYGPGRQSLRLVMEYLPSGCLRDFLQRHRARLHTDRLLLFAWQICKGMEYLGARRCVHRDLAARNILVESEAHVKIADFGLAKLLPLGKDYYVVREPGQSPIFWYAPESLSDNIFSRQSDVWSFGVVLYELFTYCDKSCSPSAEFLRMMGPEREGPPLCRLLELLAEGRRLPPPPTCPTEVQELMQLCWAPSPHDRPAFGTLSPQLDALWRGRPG

[9] = biological target: T3, Tyrosine-protein kinase JAK3 (Mus musculus); assay: Inhibition of JAK3 in anti-CD3/-CD28 coated mouse T cells assessed as reduction in IL15-induced STAT5 phosphorylation at 10 uM preincubated for 1 hr followed by […] and measured after 30 mins by Western blot analysis; settings: T cell
[10] = biological target: T2, Tyrosine-protein kinase JAK2; assay: Inhibition of recombinant human C-terminal His6-tagged JAK2 (808 to end residues) expressed in baculovirus infected Sf21 insect cells using Biotin-TYR1 (Biotin-(Ahx)-GAEEEIYAAFFA-COOH as substrate
[11] = species: Homo sapiens; assay: Selectivity ratio of IC50 for inhibition of recombinant human C-terminal His6-tagged JAK2 (808 to end residues) expressed in baculovirus infected Sf21 insect cells to IC50 for inhibition of recombinant human GST-tagged JAK3 catalytic domain (811 to 1103 residues) expressed in Sf9 insect cells
[12] = species: Homo sapiens; assay: Selectivity ratio of IC50 for inhibition of recombinant human GST-tagged JAK1 catalytic domain (845 to 1142 residues) expressed in Sf9 insect cells to IC50 for inhibition of recombinant human GST-tagged JAK3 catalytic domain (811 to 1103 residues) expressed in Sf9 insect cells

| IC50 [1] [µM] | IC50 [2] [µM] | IC50 [3] [µM] | IC50 [4] [µM] | inhibition [8] | inhibition [9] | IC50 [10] [µM] | SMILES | Activity [5] | Activity [6] | Activity [7] | Ratio IC50 [11] | Ratio IC50 [12] |
| --- | --- | --- | --- | --- | --- | --- | --- | --- | --- | --- | --- | --- |
| 0.0061 | 1.41 | 1.15 | > 3 | Active | Active | – | C/C=C/C(=O)Nc1ccc(-c2ccnc(Nc3ccc(N4CCOCC4)cc3)n2)cc1 | Non-Toxic | Non-Toxic | Non-Toxic | – | – |
| – | – | – | – | – | – | 0.12 | CC[C@H]1CN(C(=O)NCC(F)(F)F)C[C@H]1C1C=NC2=CN=C3NC=CC3N21 (some centres not stated) | – | – | – | 19 | 49 |
